Measured values published in patent US20220098203A1 (priority 2018, published 2022).
Where two headings read alike, the source gives them in different places.

Tests used:
MAT2A homodimer = target: T1, MAT2A homodimer (Homo sapiens, UniProt P31153); assay: MAT2A biochemical assay (liberated phosphate, PiColorLock Gold); conditions: Table 5a; MAT2A biochemical assay; read-out: Enzyme Inhibition
T1 construct: inferred from the Ni sepharose purification and imidazole elution; made in house; host or cells: SF9 insect cells, recombinant baculovirus (Bac to Bac, pFASTBAC1)
T1 sequence (P31153 whole entry): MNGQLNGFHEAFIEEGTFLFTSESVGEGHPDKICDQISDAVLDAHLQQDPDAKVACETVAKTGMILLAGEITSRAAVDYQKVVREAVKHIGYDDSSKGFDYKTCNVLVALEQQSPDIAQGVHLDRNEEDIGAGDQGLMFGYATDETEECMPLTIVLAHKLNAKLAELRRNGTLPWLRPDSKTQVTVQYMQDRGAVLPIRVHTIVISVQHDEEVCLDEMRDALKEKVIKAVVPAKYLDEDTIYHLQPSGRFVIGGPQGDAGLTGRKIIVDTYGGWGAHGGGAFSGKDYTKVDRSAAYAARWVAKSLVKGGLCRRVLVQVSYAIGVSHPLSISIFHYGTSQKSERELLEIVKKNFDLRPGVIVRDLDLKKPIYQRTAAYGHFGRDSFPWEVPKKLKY
In short: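 Baculovirus/Sf9-expressed, Ni-purified MAT2A homodimer preincubated with compound 60 min at 25 °C, then reacted 60 min at 25 °C with substrate mix of 500 μM ATP and 400 μM L-methionine, pH 7.0 (mix, not final levels). Phosphate released with SAM measured by PiColorLock Gold against phosphate standard curve.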

[1] = system: SAM in HCT116 MTAP-deleted cells; assay: Cellular assay of target engagement (SAM), LC-MS/MS; assay type: cell-based, human; conditions: 72 h, read-out: Cell 72 h SAM Inhibition (MTAP −/−)
Protocol: Measurement of MAT2A activity in cells was made by direct quantitation of the abundance of the product of its enzymatic activity, SAM. Cancer cells were treated with candidate MAT2A inhibitors for a suitable incubation period, and the cells were then lysed using a reagent which quenched any further enzyme activity. Soluble metabolites including SAM were collected and SAM itself was directly measured from the lysate using quantitative LC-MS/MS.
A typical assay was performed using an HCT116 human colon carcinoma cell line which was genetically engineered to delete the MTAP gene (commercially available from Horizon Discovery). […] Cells were plated in 96-well dishes at appropriate cell density. Following 24 hours, cells were then treated with the candidate MAT2A inhibitor. […] Compound was then transferred to a working stock plate in cell culture media by adding 5 μL of compound in DMSO to 495 μL of cell culture media. This working stock was then added to cells via a further 5-fold dilution, by adding 25 μL of working stock to 100 μL of cells in culture media. Following compound addition, cells were incubated at 37° C./5% CO2 for 72 hrs.
To quantitate SAM levels following compound treatment, cells were gently washed once in ammonium carbonate buffer (75 mM at pH 7.4), placed on dry ice, and lysed with metabolite extraction buffer (80% cold methanol and 20% water (v/v) with acetic acid at 1M final concentration with 200 ng/mL deuterated d3-SAM as internal control). Following centrifugation at 4° C. at 3,200 rpm for 30 minutes, the supernatant was collected and stored at −80° C. until analysis by Liquid Chromatography with tandem Mass Spectrometry (LC-MS/MS). LC-MS/MS analysis was performed using an API6500 Mass Spectrometer (Sciex, Framingham, Mass., USA) operating in positive ion spray mode and equipped with a Waters UPLC Acquity (Waters, Milford, Mass., USA) BEH Amide column.

HCT116 MTAP-/- = assay: Inhibition of cellular proliferation (Cell Titer Glo), HCT116 MTAP-/-; assay type: cell-based, human; conditions: 4 days, read-out: 4 Day Relative Growth Inhibition (MTAP −/−)
Protocol: (§1) Test compound impact on cancer cell growth was assessed by treating cancer cells with compound for 4 days and then measuring proliferation using an ATP-based cell proliferation readout (Cell Titer Glo, Promega Corporation).
(§2) In a typical assay an isogenic pair of HCT116 human colon carcinoma cell lines which vary only in MTAP deletion status (HCT116 MTAP+/+ and HCT116 MTAP−/−) were plated in 96-well dishes at appropriate cell density. Following 24 hours, cells were then treated with the candidate MAT2A inhibitor. […] Compound was then transferred to a working stock plate in cell culture media by adding 5 μL of compound in DMSO to 495 μL of cell culture media. This working stock was then added to cells via a further 5-fold dilution, by adding 25 μL of working stock to 100 μL of cells in culture media. Following compound addition, cells were incubated at 37° C./5% CO2 for 4 days.
(§3) The plate was then covered with aluminum foil and shaken for 15 minutes to ensure complete mixing and full cell lysis. […] This luminescence measure was converted to a proliferation index by subtracting from each data point the ATP luminescence signal measured from a bank (no cells) well and dividing by the ATP luminescence signal measured in 0.2% DMSO control well adjusted for signal in blank well.

HCT116 MTAP+/+ = assay: Inhibition of cellular proliferation (Cell Titer Glo), HCT116 MTAP+/+; assay type: cell-based; conditions: Homo sapiens, HCT-116, 96 h, Table 5a, 4 days, read-out: 4 Day Relative Growth Inhibition (MTAP +/+)
Protocol: as §1, §2, §3

[2] = Homo sapiens, HCT-116, Table 5a
[3] = Homo sapiens, HCT-116, 96 h, Table 5a
[4] = Table 6, select pairs of compounds

Structure (SMILES) | IC50 (MAT2A homodimer) [µM] | IC50 [1, 2] [µM] | IC50 (HCT116 MTAP-/-; [3]) [µM] | IC50 (HCT116 MTAP+/+) [µM] | IC50 [1, 4] [µM] | IC50 (HCT116 MTAP-/-; [4]) [µM]
CCOc1ccc2c(n1)N(c1ccc(C3CC3)nc1)C(=O)N(c1ccc3nn(C)cc3c1)C2 [Example 152, 1-(6-cyclopropylpyridin-3-yl)-7-ethoxy-3-(2-methyl-2H-indazol-5-yl)-3,4-dihydropyrido[2,3-d]pyrimidin-2(1H)-one] | < 0.1 | < 0.1 | 0.1 to 1 | > 1 |  | 
CCOc1cnc2c(n1)N(c1ccc(Cl)cc1)C(=O)N(c1ccc3nn(C)cc3c1)C2 [Example 413, 1-(4-chlorophenyl)-7-ethoxy-3-(2-methyl-2H-indazol-5-yl)-3,4-dihydropteridin-2(1H)-one] | < 0.1 | < 0.1 | 0.1 to 1 | > 1 |  | 
[2H]C([2H])([2H])Oc1ccc(N2C(=O)N(c3ccc4ncsc4c3)Cc3ccc(OCC(F)F)nc32)cc1 [Example 102, 3-(benzo[d]thiazol-6-yl)-7-(2,2-difluoroethoxy)-1-(4-(methoxy-d3)phenyl)-3,4-dihydropyrido[2,3-d]pyrimidin-2(1H)-one] | < 0.1 | < 0.1 | 0.1 to 1 | > 1 |  | 
CCNc1ccc2c(n1)N(c1ccc(OC(F)F)cc1)C(=O)N(c1ccc3nn(C)cc3c1)C2 [Example 269] | < 0.1 | 0.1 to 1 | 0.1 to 1 | > 1 | 0.1 to 1 | 0.1 to 1
CCNc1ccc2c(n1)N(c1ccc(OC(F)F)cc1)C(=O)N(c1ccc3ncn(C)c3c1)C2 [Example 274] | < 0.1 | < 0.1 | < 0.1 | > 1 | < 0.1 | < 0.1
Cn1cc2cc(N3Cc4ccc(OCC(F)F)nc4N(c4ccc5[nH]ccc5c4)C3=O)ccc2n1 [Example 169, 7-(2,2-difluoroethoxy)-1-(1H-indol-5-yl)-3-(2-methyl-2H-indazol-5-yl)-3,4-dihydropyrido[2,3-d]pyrimidin-2(1H)-one] | < 0.1 | < 0.1 | < 0.1 | > 1 |  | 
CCOc1ccc2c(n1)N(c1ccc(Cl)cc1)C(=O)N(c1ccc3nn(C)cc3c1)C2 [Example 146, 1-(4-chlorophenyl)-7-ethoxy-3-(2-methyl-2H-indazol-5-yl)-3,4-dihydropyrido[2,3-d]pyrimidin-2(1H)-one] | < 0.1 | < 0.1 | 0.1 to 1 | > 1 |  | 
[2H]C([2H])([2H])Oc1ccc(N2C(=O)N(c3ccc4nn(CC(F)(F)F)cc4c3)Cc3ccc(OCC(F)F)nc32)cc1 [Example 120, 7-(2,2-difluoroethoxy)-1-(4-methoxy-d3-phenyl)-3-(2-(2,2,2-trifluoroethyl)-2H-indazol-5-yl)-3,4-dihydropyrido[2,3-d]pyrimidin-2(1H)-one] | < 0.1 | 0.1 to 1 | 0.1 to 1 | > 1 |  | 
COc1ccc(N2Cc3cnc(NCC(F)(F)F)nc3N(c3ccc(OC)nc3)C2=O)cc1 [Example 261] | 0.1 to 1 | 0.1 to 1 | > 1 | > 1 |  | 
O=C1N(c2ccc3ncsc3c2)Cc2ccc(OCC(F)F)nc2N1c1ccc(OC(F)F)cc1 [Example 408, 3-(benzo[d]thiazol-6-yl)-7-(2,2-difluoroethoxy)-1-(4-(difluoromethoxy)phenyl)-3,4-dihydropyrido[2,3-d]pyrimidin-2(1H)-one] | < 0.1 | < 0.1 | 0.1 to 1 | > 1 |  | 
Cn1cc2cc(N3Cc4ccc(OCC(F)F)nc4N(c4ccc5[nH]nnc5c4)C3=O)ccc2n1 [Example 179, 1-(1H-benzo[d][1,2,3]triazol-5-yl)-7-(2,2-difluoroethoxy)-3-(2-methyl-2H-indazol-5-yl)-3,4-dihydropyrido[2,3-d]pyrimidin-2(1H)-one] | < 0.1 | > 1 | > 1 | > 1 |  | 
Cn1cc2cc(N3Cc4ccc(OCC(F)F)nc4N(c4ccc5[nH]cnc5c4)C3=O)ccc2n1 [Example 404, 1-(1H-benzo[d]imidazol-5-yl)-7-(2,2-difluoroethoxy)-3-(2-methyl-2H-indazol-5-yl)-3,4-dihydropyrido[2,3-d]pyrimidin-2(1H)-one] | < 0.1 | 0.1 to 1 | 0.1 to 1 | > 1 |  | 
O=C1N(c2ccc3c(c2)OCCO3)Cc2cnc(NCC(F)(F)F)nc2N1c1ccc(-c2nc[nH]n2)cc1 [Example 214, 1-(4-(1H-1,2,4-triazol-3-yl)phenyl)-3-(2,3-dihydrobenzo[b][1,4]dioxin-6-yl)-7-((2,2,2-trifluoroethyl)amino)-3,4-dihydropyrimido[4,5-d]pyrimidin-2(1H)-one] | < 0.1 | < 0.1 | 0.1 to 1 | > 1 |  | 
[2H]C([2H])([2H])Oc1ccc(N2C(=O)N(c3ccc4nn(C)cc4c3)Cc3ccc(OCC4CC4)nc32)cc1 [Example 164, 7-(cyclopropylmethoxy)-1-(4-methoxy-d3-phenyl)-3-(2-methyl-2H-indazol-5-yl)-3,4-dihydropyrido[2,3-d]pyrimidin-2(1H)-one] | < 0.1 | 0.1 to 1 | 0.1 to 1 | > 1 |  | 
Cn1cc2cc(N3Cc4ccc(OCC(F)F)nc4N(c4ccc5c(ccn5C)c4)C3=O)ccc2n1 [Example 172, 7-(2,2-difluoroethoxy)-1-(1-methyl-1H-indol-5-yl)-3-(2-methyl-2H-indazol-5-yl)-3,4-dihydropyrido[2,3-d]pyrimidin-2(1H)-one] | < 0.1 | < 0.1 | < 0.1 | 0.1 to 1 |  | 
[2H]C([2H])([2H])Oc1ccc(N2C(=O)N(c3ccc4ncn(C)c4c3)Cc3ccc(OCC(F)F)nc32)cc1 [Example 135, 7-(2,2-difluoroethoxy)-1-(4-(methoxy-d3)phenyl)-3-(1-methyl-1H-benzo[d]imidazol-6-yl)-3,4-dihydropyrido[2,3-d]pyrimidin-2(1H)-one] | < 0.1 | < 0.1 | < 0.1 | > 1 |  | 
Cn1cnc2ccc(N3Cc4ccc(NCC(F)(F)F)nc4N(c4ccc(OC(F)F)cc4)C3=O)cc21 [Example 271] | < 0.1 | < 0.1 | < 0.1 | < 0.1 | < 0.1 | < 0.1
Cn1cc2cc(N3Cc4ccc(OCC(F)F)nc4N(c4ccc5ocnc5c4)C3=O)ccc2n1 [Example 283, 1-(benzo[d]oxazol-5-yl)-7-(2,2-difluoroethoxy)-3-(2-methyl-2H-indazol-5-yl)-3,4-dihydropyrido[2,3-d]pyrimidin-2(1H)-one] | < 0.1 | 0.1 to 1 | 0.1 to 1 | 0.1 to 1 |  | 
CCOc1cnc2c(n1)N(c1ccc(OC(F)F)cc1)C(=O)N(c1ccc3nn(C)cc3c1)C2 [Example 183, 1-(4-(difluoromethoxy)phenyl)-7-ethoxy-3-(2-methyl-2H-indazol-5-yl)-3,4-dihydropteridin-2(1H)-one] | < 0.1 | < 0.1 | 0.1 to 1 | > 1 |  | 
